Tests used:
RPMI-8226 = assay: Anticancer activity against human RPMI-8226 cells assessed as cell growth inhibition at 10 uM incubated for 48 hrs by SRB assay relative to control; type: functional; conditions: read-out: GI
ACHN = assay: Anticancer activity against human ACHN cells assessed as cell growth inhibition at 10 uM incubated for 48 hrs by SRB assay relative to control; type: functional; conditions: read-out: GI
KM12 = assay: Anticancer activity against human KM12 cells assessed as cell growth inhibition at 10 uM incubated for 48 hrs by SRB assay relative to control; type: functional; conditions: read-out: GI
MDA-MB-435 = assay: Anticancer activity against human MDA-MB-435 cells assessed as cell growth inhibition at 10 uM incubated for 48 hrs by SRB assay relative to control; type: functional; conditions: read-out: GI
SK-MEL-2 = assay: Anticancer activity against human SK-MEL-2 cells assessed as cell growth inhibition at 10 uM incubated for 48 hrs by SRB assay relative to control; type: functional; conditions: read-out: GI
HCC 2998 = assay: Anticancer activity against human HCC 2998 cells assessed as cell growth inhibition at 10 uM incubated for 48 hrs by SRB assay relative to control; type: functional; conditions: read-out: GI
A498 = assay: Anticancer activity against human A498 cells assessed as cell growth inhibition at 10 uM incubated for 48 hrs by SRB assay relative to control; type: functional; conditions: read-out: GI
Carbonic anhydrase 9 = Carbonic anhydrase 9 (Homo sapiens, UniProt Q16790); assay: Inhibition of recombinant human CA 9 preincubated for 15 mins by phenol red dye based stopped flow CO2 hydration assay
BT-549 = assay: Anticancer activity against human BT-549 cells assessed as cell growth inhibition at 10 uM incubated for 48 hrs by SRB assay relative to control; type: functional; conditions: read-out: GI
MDA-MB-231 = assay: Anticancer activity against human MDA-MB-231 cells assessed as cell growth inhibition at 10 uM incubated for 48 hrs by SRB assay relative to control; type: functional; conditions: read-out: GI
OVCAR-5 = assay: Anticancer activity against human OVCAR-5 cells assessed as cell growth inhibition at 10 uM incubated for 48 hrs by SRB assay relative to control; type: functional; conditions: read-out: GI
PC-3 = assay: Anticancer activity against human PC-3 cells assessed as cell growth inhibition at 10 uM incubated for 48 hrs by SRB assay relative to control; type: functional; conditions: read-out: GI
HL-60(TB) = assay: Anticancer activity against human HL-60(TB) cells assessed as cell growth inhibition at 10 uM incubated for 48 hrs by SRB assay relative to control; type: functional; conditions: read-out: GI
NCI/ADR-RES = assay: Anticancer activity against human NCI/ADR-RES cells assessed as cell growth inhibition at 10 uM incubated for 48 hrs by SRB assay relative to control; type: functional; conditions: read-out: GI
MOLT-4 = assay: Anticancer activity against human MOLT-4 cells assessed as cell growth inhibition at 10 uM incubated for 48 hrs by SRB assay relative to control; type: functional; conditions: read-out: GI
T47D = assay: Anticancer activity against human T47D cells assessed as cell growth inhibition at 10 uM incubated for 48 hrs by SRB assay relative to control; type: functional; conditions: read-out: GI
OVCAR-3 = assay: Anticancer activity against human OVCAR-3 cells assessed as cell growth inhibition at 10 uM incubated for 48 hrs by SRB assay relative to control; type: functional; conditions: read-out: GI
UACC-62 = assay: Anticancer activity against human UACC-62 cells assessed as cell growth inhibition at 10 uM incubated for 48 hrs by SRB assay relative to control; type: functional; conditions: read-out: GI
SW-620 = assay: Anticancer activity against human SW-620 cells assessed as cell growth inhibition at 10 uM incubated for 48 hrs by SRB assay relative to control; type: functional; conditions: read-out: GI
OVCAR-4 = assay: Anticancer activity against human OVCAR-4 cells assessed as cell growth inhibition at 10 uM incubated for 48 hrs by SRB assay relative to control; type: functional; conditions: read-out: GI
HCT-15 = assay: Anticancer activity against human HCT-15 cells assessed as cell growth inhibition at 10 uM incubated for 48 hrs by SRB assay relative to control; type: functional; conditions: read-out: GI
SF-539 = assay: Anticancer activity against human SF-539 cells assessed as cell growth inhibition at 10 uM incubated for 48 hrs by SRB assay relative to control; type: functional; conditions: read-out: GI
SNB-75 = assay: Anticancer activity against human SNB-75 cells assessed as cell growth inhibition at 10 uM incubated for 48 hrs by SRB assay relative to control; type: functional; conditions: read-out: GI
HCT-116 = assay: Anticancer activity against human HCT-116 cells assessed as cell growth inhibition at 10 uM incubated for 48 hrs by SRB assay relative to control; type: functional; conditions: read-out: GI
MDA-MB-468 = assay: Anticancer activity against human MDA-MB-468 cells assessed as cell growth inhibition at 10 uM incubated for 48 hrs by SRB assay relative to control; type: functional; conditions: read-out: GI
NCI-H226 = assay: Anticancer activity against human NCI-H226 cells assessed as cell growth inhibition at 10 uM incubated for 48 hrs by SRB assay relative to control; type: functional; conditions: read-out: GI
NCI-H23 = assay: Anticancer activity against human NCI-H23 cells assessed as cell growth inhibition at 10 uM incubated for 48 hrs by SRB assay relative to control; type: functional; conditions: read-out: GI
NCI-H460 = assay: Anticancer activity against human NCI-H460 cells assessed as cell growth inhibition at 10 uM incubated for 48 hrs by SRB assay relative to control; type: functional; conditions: read-out: GI
CAKI-1 = assay: Anticancer activity against human CAKI-1 cells assessed as cell growth inhibition at 10 uM incubated for 48 hrs by SRB assay relative to control; type: functional; conditions: read-out: GI
U-251 = assay: Anticancer activity against human U-251 cells assessed as cell growth inhibition at 10 uM incubated for 48 hrs by SRB assay relative to control; type: functional; conditions: read-out: GI
SR = assay: Anticancer activity against human SR cells assessed as cell growth inhibition at 10 uM incubated for 48 hrs by SRB assay relative to control; type: functional; conditions: read-out: GI
CCRF-CEM = assay: Anticancer activity against human CCRF-CEM cells assessed as cell growth inhibition at 10 uM incubated for 48 hrs by SRB assay relative to control; type: functional; conditions: read-out: GI
HOP-92 = assay: Anticancer activity against human HOP-92 cells assessed as cell growth inhibition at 10 uM incubated for 48 hrs by SRB assay relative to control; type: functional; conditions: read-out: GI
HOP-62 = assay: Anticancer activity against human HOP-62 cells assessed as cell growth inhibition at 10 uM incubated for 48 hrs by SRB assay relative to control; type: functional; conditions: read-out: GI
K562 = assay: Anticancer activity against human K562 cells assessed as cell growth inhibition at 10 uM incubated for 48 hrs by SRB assay relative to control; type: functional; conditions: read-out: GI
SF-268 = assay: Anticancer activity against human SF-268 cells assessed as cell growth inhibition at 10 uM incubated for 48 hrs by SRB assay relative to control; type: functional; conditions: read-out: GI
MCF7 = assay: Anticancer activity against human MCF7 cells assessed as cell growth inhibition at 10 uM incubated for 48 hrs by SRB assay relative to control; type: functional; conditions: read-out: GI
SK-MEL-5 = assay: Anticancer activity against human SK-MEL-5 cells assessed as cell growth inhibition at 10 uM incubated for 48 hrs by SRB assay relative to control; type: functional; conditions: read-out: GI
A549 = assay: Anticancer activity against human A549 cells assessed as cell growth inhibition at 10 uM incubated for 48 hrs by SRB assay relative to control; type: functional; conditions: read-out: GI
UACC-257 = assay: Anticancer activity against human UACC-257 cells assessed as cell growth inhibition at 10 uM incubated for 48 hrs by SRB assay relative to control; type: functional; conditions: read-out: GI

| SMILES | inhibition of growth at 10 µM (RPMI-8226) | inhibition of growth at 10 µM (ACHN) | inhibition of growth at 10 µM (KM12) | inhibition of growth at 10 µM (MDA-MB-435) | inhibition of growth at 10 µM (SK-MEL-2) | inhibition of growth at 10 µM (HCC 2998) | inhibition of growth at 10 µM (A498) | Ki (Carbonic anhydrase 9) | inhibition of growth at 10 µM (BT-549) | inhibition of growth at 10 µM (MDA-MB-231) | inhibition of growth at 10 µM (OVCAR-5) | inhibition of growth at 10 µM (PC-3) | inhibition of growth at 10 µM (HL-60(TB)) | inhibition of growth at 10 µM (NCI/ADR-RES) | inhibition of growth at 10 µM (MOLT-4) | inhibition of growth at 10 µM (T47D) | inhibition of growth at 10 µM (OVCAR-3) | inhibition of growth at 10 µM (UACC-62) | inhibition of growth at 10 µM (SW-620) | inhibition of growth at 10 µM (OVCAR-4) | other results |
| --- | --- | --- | --- | --- | --- | --- | --- | --- | --- | --- | --- | --- | --- | --- | --- | --- | --- | --- | --- | --- | --- |
| NS(=O)(=O)c1ccc(Nc2nc(N/N=C/C=C/c3ccccc3)nc(Nc3ccccc3)n2)cc1 | 71% | 61% | 44% | 48% | 55% | 61% | 59% | 233 nM | 34% | 52% | < 10% | 52% | 61% | < 10% | 87% | 81% | 55% | 33% | 48% | 50% | inhibition of growth at 10 µM (HCT-15): 55%; inhibition of growth at 10 µM (SF-539): 60%; inhibition of growth at 10 µM (SNB-75): 57%; inhibition of growth at 10 µM (HCT-116): 70%; inhibition of growth at 10 µM (MDA-MB-468): 84%; inhibition of growth at 10 µM (NCI-H226): 41%; inhibition of growth at 10 µM (NCI-H23): 59%; inhibition of growth at 10 µM (NCI-H460): 93%; inhibition of growth at 10 µM (CAKI-1): 53%; inhibition of growth at 10 µM (U-251): 48%; inhibition of growth at 10 µM (SR): 85%; inhibition of growth at 10 µM (CCRF-CEM): 75%; inhibition of growth at 10 µM (HOP-92): 16%; inhibition of growth at 10 µM (HOP-62): 43%; inhibition of growth at 10 µM (K562): 72%; inhibition of growth at 10 µM (SF-268): 53%; inhibition of growth at 10 µM (MCF7): 84%; inhibition of growth at 10 µM (SK-MEL-5): 59%; inhibition of growth at 10 µM (A549): 30%; inhibition of growth at 10 µM (UACC-257): 20% |
| NS(=O)(=O)c1ccc(Nc2nc(N/N=C/CCc3ccccc3)nc(Nc3ccccc3)n2)cc1 | < 10% | < 10% | < 10% | < 10% | < 10% | < 10% | < 10% | 28.8 nM | < 10% | < 10% | < 10% | < 10% | < 10% | < 10% | < 10% | < 10% | < 10% | < 10% | < 10% | < 10% | inhibition of growth at 10 µM (HCT-15): < 10%; inhibition of growth at 10 µM (SF-539): < 10%; inhibition of growth at 10 µM (SNB-75): < 10%; inhibition of growth at 10 µM (HCT-116): < 10%; inhibition of growth at 10 µM (MDA-MB-468): 11%; inhibition of growth at 10 µM (NCI-H226): < 10%; inhibition of growth at 10 µM (NCI-H23): < 10%; inhibition of growth at 10 µM (NCI-H460): < 10%; inhibition of growth at 10 µM (CAKI-1): < 10%; inhibition of growth at 10 µM (U-251): < 10%; inhibition of growth at 10 µM (SR): < 10%; inhibition of growth at 10 µM (CCRF-CEM): < 10%; inhibition of growth at 10 µM (HOP-92): < 10%; inhibition of growth at 10 µM (HOP-62): < 10%; inhibition of growth at 10 µM (K562): < 10%; inhibition of growth at 10 µM (SF-268): < 10%; inhibition of growth at 10 µM (MCF7): < 10%; inhibition of growth at 10 µM (SK-MEL-5): < 10%; inhibition of growth at 10 µM (A549): < 10%; inhibition of growth at 10 µM (UACC-257): < 10% |
| NS(=O)(=O)c1ccc(Nc2nc(N/N=C/c3ccccn3)nc(Nc3ccccc3)n2)cc1 | 63% | 82% | 95% | 184% | 182% | 174% | 167% | 27.2 nM | 120% | 129% | 90% | 107% | 97% | 51% | 96% | 118% | 115% | 149% | 117% | 120% | inhibition of growth at 10 µM (HCT-15): 82%; inhibition of growth at 10 µM (SF-539): 142%; inhibition of growth at 10 µM (SNB-75): 125%; inhibition of growth at 10 µM (HCT-116): 129%; inhibition of growth at 10 µM (MDA-MB-468): 129%; inhibition of growth at 10 µM (NCI-H226): 149%; inhibition of growth at 10 µM (NCI-H23): 107%; inhibition of growth at 10 µM (NCI-H460): 96%; inhibition of growth at 10 µM (CAKI-1): 125%; inhibition of growth at 10 µM (U-251): 155%; inhibition of growth at 10 µM (SR): 87%; inhibition of growth at 10 µM (CCRF-CEM): 94%; inhibition of growth at 10 µM (HOP-92): 146%; inhibition of growth at 10 µM (HOP-62): 128%; inhibition of growth at 10 µM (K562): 87%; inhibition of growth at 10 µM (SF-268): 122%; inhibition of growth at 10 µM (MCF7): 98%; inhibition of growth at 10 µM (SK-MEL-5): 184%; inhibition of growth at 10 µM (A549): 64%; inhibition of growth at 10 µM (UACC-257): 118% |

From ChEMBL document CHEMBL5154747, “Discovery of new carbonic anhydrase IX inhibitors as anticancer agents by toning the hydrophobic and hydrophilic rims of the active site to encounter the dual-tail approach” (Eur J Med Chem, 2022)
